Test results taken from patent US20080103049A1, “Benzoyl-Substituted Serineamides” (BSDG Aktiengesellschaft, priority 2004, published 2008).

Legend:
Assay type in all cases: in vivo
[1] = tested on: Setaria viridis (green foxtail); assay: greenhouse post-emergence herbicidal test, green foxtail; details: for post-emergence action against green foxtail: application rate 0.5 kg/ha a.s.; for post-emergence control of green foxtail: application rate 1.0 kg/ha a.s.
Text: (§1) The culture containers used were plastic flowerpots containing loamy sand with approximately 3.0% of humus as the substrate. The seeds of the test plants were sown separately for each species.
(§2) For the post-emergence treatment, the test plants were first grown to a height of 3 to 15 cm, depending on the plant habit, and only then treated with the active ingredients which had been suspended or emulsified in water. For this purpose, the test plants were either sown directly and grown in the same containers, or they were first grown separately as seedlings and transplanted into the test containers a few days prior to treatment. The rate of application for the post-emergence treatment was 1.0 or 0.5 kg/ha of a.s. (active substance).
(§3) Depending on the species, the plants were kept at 10-25° C. or 20-35° C. The test period extended over 2 to 4 weeks. During this time, the plants were tended, and their response to the individual treatments was evaluated.
(§4) Evaluation was carried out using a scale from 0 to 100. 100 means no emergence of the plants, or complete destruction of at least the aerial parts, and 0 means no damage, or normal course of growth.
(§5) The plants used in the greenhouse experiments belonged to the following species: […]

[2] = tested on: Amaranthus retroflexus (pig weed); assay: greenhouse post-emergence herbicidal test, pig weed; details: for post-emergence action against pig weed: application rate 0.5 kg/ha a.s.; for post-emergence control of pig weed: application rate 1.0 kg/ha a.s.
Text: as §1, §2, §3, §4, §5

[3] = tested on: Chenopodium album (lambsquarters); assay: greenhouse post-emergence herbicidal test, lambsquarters; details: for post-emergence action against lambsquarters: application rate 0.5 kg/ha a.s.; for post-emergence control of lambsquarters: application rate 1.0 kg/ha a.s.
Text: as §1, §2, §3, §4, §5

CNC(=O)C(NC(=O)c1ccc(F)cc1C(F)(F)F)C(OC(=O)N(C)C)c1cccs1 (mixture of isomers) [Compound 3.10]
very good: post-emergence action against green foxtail [1] | post-emergence action against pig weed [2] | post-emergence action against lambsquarters [3]

CNC(=O)C(NC(=O)c1ccc(F)cc1C(F)(F)F)C(OC(=O)N(C)C)c1ccsc1 (mixture of isomers) [Compound 3.11]
very good: post-emergence control of green foxtail [1] | post-emergence control of pig weed [2] | post-emergence control of lambsquarters [3]

CNC(=O)C(NC(=O)c1ccccc1C(F)(F)F)C(O)c1ccn(C)n1 (mixture of isomers) [Compound 3.14]
very good: post-emergence control of green foxtail [1] | post-emergence control of pig weed [2] | post-emergence control of lambsquarters [3]

CNC(=O)C(NC(=O)c1ccccc1C(F)(F)F)C(OC(=O)N(C)C)c1ccn(C)n1 (mixture of isomers) [Compound 3.20]
very good: post-emergence control of green foxtail [1] | post-emergence control of pig weed [2] | post-emergence control of lambsquarters [3]

CNC(=O)C(NC(=O)c1ccccc1C(F)(F)F)C(OC(=O)N(C)C)c1ccn(C)n1 (mixture of isomers) [Compound 3.21]
very good: post-emergence action against green foxtail [1] | post-emergence action against pig weed [2] | post-emergence action against lambsquarters [3]

CNC(=O)C(NC(=O)c1ccc(F)cc1C(F)(F)F)C(O)c1ccc(Cl)s1 (mixture of isomers) [Compound 3.28]
very good: post-emergence action against green foxtail [1] | post-emergence action against pig weed [2] | post-emergence action against lambsquarters [3]

CNC(=O)C(NC(=O)c1ccc(F)cc1C(F)(F)F)C(O)c1ccccn1 (mixture of isomers) [Compound 3.36]
very good: post-emergence action against green foxtail [1] | post-emergence action against pig weed [2] | post-emergence action against lambsquarters [3]

CNC(=O)C(NC(=O)c1ccc(F)cc1C(F)(F)F)C(O)c1cccnc1Cl (mixture of isomers) [Compound 3.39]
very good: post-emergence control of green foxtail [1] | post-emergence control of pig weed [2] | post-emergence control of lambsquarters [3]

CNC(=O)C(NC(=O)c1ccc(F)cc1C(F)(F)F)C(O)c1cccnc1Cl (mixture of isomers) [Compound 3.40]
very good: post-emergence control of green foxtail [1] | post-emergence control of pig weed [2] | post-emergence control of lambsquarters [3]

CNC(=O)C(NC(=O)c1ccc(F)cc1C(F)(F)F)C(O)c1ccc[n+]([O-])c1Cl (mixture of isomers) [Compound 3.41]
very good: post-emergence action against green foxtail [1] | post-emergence action against pig weed [2] | post-emergence action against lambsquarters [3]

CNC(=O)C(NC(=O)c1ccc(F)cc1C(F)(F)F)C(OC(C)=O)c1ccccn1 (mixture of isomers) [Compound 3.53]
very good: post-emergence action against green foxtail [1] | post-emergence action against pig weed [2] | post-emergence action against lambsquarters [3]

CNC(=O)C(NC(=O)c1ccc(F)cc1C(F)(F)F)C(OC(=O)N(C)C)c1ccc(Cl)s1 (mixture of isomers) [Compound 3.66]
very good: post-emergence action against green foxtail [1] | post-emergence action against pig weed [2] | post-emergence action against lambsquarters [3]

CNC(=O)C(NC(=O)c1ccc(F)cc1C(F)(F)F)C(OC(=O)N(C)C)c1ccccn1 (mixture of isomers) [Compound 3.69]
very good: post-emergence action against green foxtail [1] | post-emergence action against pig weed [2] | post-emergence action against lambsquarters [3]

CNC(=O)C(NC(=O)c1ccc(F)cc1C(F)(F)F)C(OC(C)=O)c1cccnc1Cl (racemic) [Compound 3.56]
very good: post-emergence action against green foxtail [1] | post-emergence action against pig weed [2] | post-emergence action against lambsquarters [3]

CNC(=O)C(NC(=O)c1ccc(F)cc1C(F)(F)F)C(OC(C)=O)c1cnccc1Cl (racemic) [Compound 3.57]
very good: post-emergence action against green foxtail [1] | post-emergence action against pig weed [2] | post-emergence action against lambsquarters [3]

CNC(=O)C(NC(=O)c1ccc(F)cc1C(F)(F)F)C(OC(C)=O)c1ccncc1Cl (racemic) [Compound 3.59]
very good: post-emergence action against green foxtail [1] | post-emergence action against pig weed [2] | post-emergence action against lambsquarters [3]

CNC(=O)C(NC(=O)c1ccc(F)cc1C(F)(F)F)C(OC(=O)N(C)C)c1cccnc1F (racemic) [Compound 3.71]
very good: post-emergence action against green foxtail [1] | post-emergence action against pig weed [2] | post-emergence action against lambsquarters [3]

CNC(=O)C(NC(=O)c1ccc(F)cc1C(F)(F)F)C(OC(=O)N(C)C)c1cnccc1Cl (racemic) [Compound 3.74]
very good: post-emergence action against green foxtail [1] | post-emergence action against pig weed [2] | post-emergence action against lambsquarters [3]

CNC(=O)C(NC(=O)c1ccc(F)cc1C(F)(F)F)C(OC(=O)N(C)C)c1ccc[n+]([O-])c1Cl (racemic) [Compound 3.75]
very good: post-emergence action against green foxtail [1] | post-emergence action against pig weed [2] | post-emergence action against lambsquarters [3]

CC[Si](CC)(CC)OC(c1ccsc1)C(NC(=O)c1ccc(F)cc1C(F)(F)F)C(=O)NC [Compound 3.13, (2S,3R)-threo-4-Fluoro-N-(1-methylcarbamoyl-2-thiophen-3-yl-2-triethylsilanyloxyethyl)-2-trifluoromethylbenzamide]
very good: post-emergence control of green foxtail [1] | post-emergence control of pig weed [2] | post-emergence control of lambsquarters [3]

CNC(=O)[C@@H](NC(=O)c1ccc(F)cc1C(F)(F)F)C(OC(=O)CSC)c1cccs1 (stereo partly drawn) [Compound 3.63]
very good: post-emergence action against green foxtail [1] | post-emergence action against pig weed [2] | post-emergence action against lambsquarters [3]

CNC(=O)[C@@H](NC(=O)c1ccc(F)cc1C(F)(F)F)C(OC(=O)N(C)C)c1cccs1 (stereo partly drawn) [Compound 3.65]
very good: post-emergence action against green foxtail [1] | post-emergence action against pig weed [2] | post-emergence action against lambsquarters [3]

CC[Si](CC)(CC)OC(c1ccc(Cl)s1)[C@H](NC(=O)c1ccc(F)cc1C(F)(F)F)C(=O)NC (stereo partly drawn) [Compound 3.79]
very good: post-emergence control of green foxtail [1] | post-emergence control of pig weed [2] | post-emergence control of lambsquarters [3]
